Test results reported in US11629171B2, “Beta-hairpin peptidomimetics” (POLYPHOR AG, priority 2017, dated 2023).
≈ marks a conversion by molar mass, not a printed value. Where a SMILES comes first, the peptide text is derived from it. Bridges are numbered along the chain shown (N, C = ends). Roman numbers before positions name the chains, in order. [ ]: non-standard residue; d: D form. Thr(ol) = C[C@@H](O)[C@H](N)CO; Tle = CC(C)(C)[C@H](N)C(=O)O; Hiv = CC(C)[C@H](O)C(=O)O; dDab = NCC[C@@H](N)C(=O)O; hSer = N[C@@H](CCO)C(=O)O; Orn = NCCC[C@H](N)C(=O)O; Dab = NCC[C@H](N)C(=O)O; Dap = NC[C@H](N)C(=O)O

What was measured:
Format in all cases: cell-based
[1] = system: human red blood cells (hRBC); test: Hemolysis; details: red cells of human, 1 h, 200
Outline: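 Washed fresh human RBC (20% v/v) incubated with peptide at 200 μg/mL for 1 h at 37° C with shaking. Supernatant OD540 measured after dilution, blank corrected; percent hemolysis = OD540 peptide / OD540 of 2% Triton X-100 lysis × 100, PBS with 10% water as 0%.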

[2] = system: Pseudomonas aeruginosa ATCC 27853; details: ATCC 27853
Outline: (§1)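 Standard CLSI microdilution testing: bacterial suspensions standardized against 0.5 McFarland to about 10^6 CFU/mL in MH-II broth meet serially halved peptide concentrations in broth containing 0.002% polysorbate 80; incubation lasts 18-20 h at 35° C before the MIC is scored.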

[3] = system: Acinetobacter baumannii DSM 30008; details: DSM 30008
Outline: as §1

[4] = system: Acinetobacter baumannii 872842; details: 872842
Outline: as §1

Escherichia coli 926415 = details: 926415
Outline: as §1

[5] = system: Klebsiella pneumoniae 968733; details: 968733
Outline: as §1

[6] = system: Klebsiella pneumoniae SSI #3010; details: SSI #3010
Outline: as §1

[7] = system: Enterobacter cloacae 848840; details: 848840
Outline: as §1

[8] = system: Escherichia coli ATCC 25922; details: ATCC 25922
Outline: as §1

Row | Structure (SMILES) | Hemolysis at 200 μg/mL [1] [%] | MIC [2] [µg/mL] | MIC [3] [µg/mL] | MIC [4] [µg/mL] | MIC (Escherichia coli 926415) [µg/mL] | MIC [5] [µg/mL] | MIC [6] [µg/mL] | MIC [7] [µg/mL] | MIC [8] [µg/mL] | Pseudomonas aeruginosa ATCC 27853 MIC [2] [µg/mL] | Acinetobacter baumannii DSM 30008 MIC [3] [µg/mL] | Klebsiella pneumoniae SSI #3010 MIC [6] [µg/mL] | Escherichia coli ATCC 25922 MIC [8] [µg/mL]
1 | CC(=O)N[C@H](C(=O)N[C@H]1CCCNC(=O)[C@@H](Cc2ccc(O)cc2)NC(=O)[C@H](C(C)(C)C)NC(=O)[C@H](CO)NC(=O)[C@H](Cc2c[nH]c3ccccc23)NC(=O)[C@H](CCO)NC(=O)[C@@H](CCN)NC(=O)[C@H](CCC(=O)N[C@@H](CCN)C(=O)N[C@H](C(=O)N[C@@H](CN)C(=O)N[C@H]2CCNC(=O)[C@H]([C@@H](C)O)NC(=O)[C@H](CCN)NC(=O)[C@H](CCN)NC(=O)[C@H](CC(C)C)NC(=O)[C@@H](CC(C)C)NC(=O)[C@H](CCN)NC2=O)[C@@H](C)O)NC(=O)[C@H](CO)NC(=O)[C@H](Cc2ccc(O)cc2)NC1=O)C(C)C [Ex. 26] (I: Ac-V[Orn]YSE[dDab][hSer]WS[Tle][dY] / II: [Dab]T[Dap][Dab][Dab][dL]L[Dab][Dab]T; lactam I:2-I:C, II:4-II:C; amide I:5-II:N) | 1 | 0.25 (≈ 0.105 µM) | 0.03125 (≈ 0.0131 µM) | 0.125 (≈ 0.0525 µM) | 0.125 (≈ 0.0525 µM) | 0.25 (≈ 0.105 µM) | 0.125 (≈ 0.0525 µM) | 0.25 (≈ 0.105 µM) | 0.0625 (≈ 0.0262 µM) | – | – | – | –
2 | CC(=O)N[C@H](C(=O)N[C@H]1CCCNC(=O)[C@@H](C(C)C)NC(=O)[C@H](C(C)(C)C)NC(=O)[C@H](CO)NC(=O)[C@H](Cc2c[nH]c3ccccc23)NC(=O)[C@H](CCO)NC(=O)[C@@H](CCN)NC(=O)[C@H](CCC(=O)N[C@@H](CCN)C(=O)N[C@H](C(=O)N[C@@H](CN)C(=O)N[C@H]2CCNC(=O)[C@H]([C@@H](C)O)NC(=O)[C@H](CCN)NC(=O)[C@H](CCN)NC(=O)[C@H](CC(C)C)NC(=O)[C@@H](CC(C)C)NC(=O)[C@H](CCN)NC2=O)[C@@H](C)O)NC(=O)[C@H](CO)NC(=O)[C@H](Cc2ccc(O)cc2)NC1=O)C(C)C [Ex. 27] (I: Ac-V[Orn]YSE[dDab][hSer]WS[Tle][dV] / II: [Dab]T[Dap][Dab][Dab][dL]L[Dab][Dab]T; lactam I:2-I:C, II:4-II:C; amide I:5-II:N) | <1 | 0.5 (≈ 0.216 µM) | 0.0625 (≈ 0.027 µM) | 0.125 (≈ 0.0539 µM) | 1 (≈ 0.431 µM) | 1 (≈ 0.431 µM) | 0.25 (≈ 0.108 µM) | 0.25 (≈ 0.108 µM) | 0.0625 (≈ 0.027 µM) | – | – | – | –
3 | CC(C)C[C@@H]1NC(=O)[C@@H](CC(C)C)NC(=O)[C@H](CCN)NC(=O)[C@@H](NC(=O)[C@H](CN)NC(=O)[C@@H](NC(=O)[C@H](CCN)NC(=O)CC[C@@H]2NC(=O)[C@H](CO)NC(=O)[C@H](Cc3ccc(O)cc3)NC(=O)[C@@H](NC(=O)[C@@H](O)C(C)C)CSSC[C@@H](C(=O)N[C@@H](CO)C(N)=O)NC(=O)[C@H](C(C)(C)C)NC(=O)[C@H](CO)NC(=O)[C@H](Cc3c[nH]c4ccccc34)NC(=O)[C@H](CCN)NC(=O)[C@@H](CCN)NC2=O)[C@@H](C)O)CCNC(=O)[C@H]([C@@H](C)O)NC(=O)[C@H](CCN)NC(=O)[C@H](CCN)NC1=O [Ex. 271] (I: H-[Hiv]CYSE[dDab][Dab]WS[Tle]CS-NH2 / II: [Dab]T[Dap][Dab][Dab][dL]L[Dab][Dab]T; disulfide I:2-I:11; amide I:5-II:N; lactam II:4-II:C) | <1 | 0.0625 (≈ 0.0264 µM) | 0.03125 (≈ 0.0132 µM) | 0.0625 (≈ 0.0264 µM) | 0.0625 (≈ 0.0264 µM) | 0.0625 (≈ 0.0264 µM) | 0.0625 (≈ 0.0264 µM) | 0.25 (≈ 0.105 µM) | 0.03125 (≈ 0.0132 µM) | – | – | – | –
4 | CC(=O)N[C@H](C(=O)N[C@H]1CSSC[C@@H](C(=O)N[C@@H](CO)C(N)=O)NC(=O)[C@H](C(C)(C)C)NC(=O)[C@H](CCO)NC(=O)[C@H](Cc2c[nH]c3ccccc23)NC(=O)[C@H](CCO)NC(=O)[C@@H](CCN)NC(=O)[C@H](CCC(=O)N[C@@H](CCN)C(=O)N[C@H](C(=O)N[C@@H](CCN)C(=O)N[C@H]2CCNC(=O)[C@H]([C@@H](C)O)NC(=O)[C@H](CCN)NC(=O)[C@H](CCN)NC(=O)[C@H](CC(C)C)NC(=O)[C@@H](CC(C)C)NC(=O)[C@H](CCN)NC2=O)[C@@H](C)O)NC(=O)[C@H](CCN)NC(=O)[C@H](Cc2ccc(O)cc2)NC1=O)C(C)C [Ex. 49] (I: Ac-VCY[Dab]E[dDab][hSer]W[hSer][Tle]CS-NH2 / II: [Dab]T[Dab][Dab][Dab][dL]L[Dab][Dab]T; disulfide I:2-I:11; amide I:5-II:N; lactam II:4-II:C) | <1 | 0.125 (≈ 0.0509 µM) | 0.0625 (≈ 0.0255 µM) | 0.25 (≈ 0.102 µM) | 0.25 (≈ 0.102 µM) | 0.125 (≈ 0.0509 µM) | 0.125 (≈ 0.0509 µM) | 0.25 (≈ 0.102 µM) | 0.125 (≈ 0.0509 µM) | – | – | – | –
5 | CC(C)C[C@@H]1NC(=O)[C@@H](CC(C)C)NC(=O)[C@H](CCN)NC(=O)[C@@H](NC(=O)[C@H](CCN)NC(=O)[C@@H](NC(=O)[C@H](CCN)NC(=O)CC[C@@H]2NC(=O)[C@@H](NC(=O)[C@H](Cc3ccc(O)cc3)NC(=O)[C@@H](NC(=O)[C@@H](O)C(C)C)[C@@H](C)O)CSSC[C@@H](C(=O)N[C@H](C(=O)N[C@@H](C)C(=O)N[C@H](CO)[C@@H](C)O)C(C)(C)C)NC(=O)[C@H](Cc3c[nH]c4ccccc34)NC(=O)[C@H](CCO)NC(=O)[C@@H](CCN)NC2=O)[C@@H](C)O)CCNC(=O)[C@H]([C@@H](C)O)NC(=O)[C@H](CCN)NC(=O)[C@H](CCN)NC1=O [Ex. 193] (I: H-[Hiv]TYCE[dDab][hSer]WC[Tle]A[Thr(ol)] / II: [Dab]T[Dab][Dab][Dab][dL]L[Dab][Dab]T; disulfide I:4-I:9; amide I:5-II:N; lactam II:4-II:C) | <1 | 0.25 (≈ 0.105 µM) | 0.0625 (≈ 0.0262 µM) | 0.5 (≈ 0.21 µM) | 0.5 (≈ 0.21 µM) | 0.5 (≈ 0.21 µM) | 0.25 (≈ 0.105 µM) | 0.5 (≈ 0.21 µM) | 0.125 (≈ 0.0524 µM) | – | – | – | –
6 | CC(=O)N[C@H](C(=O)N[C@H]1CCN(C)C(=O)CC[C@@H](C(=O)N[C@@H](CO)C(N)=O)NC(=O)[C@H](C(C)C)NC(=O)[C@H](CO)NC(=O)[C@H](Cc2c[nH]c3ccccc23)NC(=O)[C@H](CO)NC(=O)[C@@H](CCN)NC(=O)[C@H](CCC(=O)N[C@@H](CCN)C(=O)N[C@H](C(=O)N[C@@H](CN)C(=O)N[C@H]2CCNC(=O)[C@H]([C@@H](C)O)NC(=O)[C@H](CCN)NC(=O)[C@H](CCN)NC(=O)[C@H](CC(C)C)NC(=O)[C@@H](CC(C)C)NC(=O)[C@H](CCN)NC2=O)[C@@H](C)O)NC(=O)[C@H](CCN)NC(=O)[C@H](Cc2ccc(O)cc2)NC1=O)C(C)C [Ex. 303] | <1 | – | – | 0.5 (≈ 0.207 µM) | 1 (≈ 0.413 µM) | 1 (≈ 0.413 µM) | – | 1 (≈ 0.413 µM) | – | 0.25 | 0.25 | 0.0625 | 0.0625
7 | CC(=O)N[C@H](C(=O)N[C@@H](CN)C(=O)N[C@@H](Cc1ccc(O)cc1)C(=O)N[C@H]1CSSC[C@@H](C(=O)N[C@H](C(=O)N[C@@H](C)C(=O)N[C@@H](CO)C(N)=O)C(C)(C)C)NC(=O)[C@H](Cc2c[nH]c3ccccc23)NC(=O)[C@H]([C@@H](C)O)NC(=O)[C@@H](CCN)NC(=O)[C@H](CCC(=O)N[C@@H](CCN)C(=O)N[C@H](C(=O)N[C@@H](CCN)C(=O)N[C@H]2CCNC(=O)[C@H]([C@@H](C)O)NC(=O)[C@H](CCN)NC(=O)[C@H](CCN)NC(=O)[C@H](CC(C)C)NC(=O)[C@@H](CC(C)C)NC(=O)[C@H](CCN)NC2=O)[C@@H](C)O)NC1=O)C(C)C [Ex. 179] (I: Ac-V[Dap]YCE[dDab]TWC[Tle]AS-NH2 / II: [Dab]T[Dab][Dab][Dab][dL]L[Dab][Dab]T; disulfide I:4-I:9; amide I:5-II:N; lactam II:4-II:C) | <1 | 0.25 (≈ 0.104 µM) | 0.0625 (≈ 0.0259 µM) | 0.25 (≈ 0.104 µM) | 0.5 (≈ 0.207 µM) | 4 (≈ 1.66 µM) | 0.25 (≈ 0.104 µM) | 0.5 (≈ 0.207 µM) | 0.125 (≈ 0.0518 µM) | – | – | – | –
